How the values were obtained:
[1] = molecular target: T1, HIV-1NL4-3 CA-NC protein (SEQ ID NO: 2) (Human immunodeficiency virus type 1 group M subtype B, UniProt P12493, G226D); test: Immobilized capsid assembly assay (CAA); type: biochemical; conditions: concentration for 50% inhibition of capsid assembly; 2 μM CA-NC, 2 hours at room temperature; read-out: IC50 (μM) CAA
T1 construct: HIV-1NL4-3 CA-NC, Gag residues 133-432; initiator Met (start codon introduced by PCR primer) (N); made in house; host or cells: E. coli BL21(DE3), pET-11a
Excerpt: (§1) SEQ ID NO: 1 is a nucleic acid of 900 base pairs encoding HIV-1NL4-3 CA-NC, Gag residues 133-432, having the CA G94D mutation (SEQ ID NO: 2). SEQ ID NO: 1, is transferred to pET-11a expression vector (Novagen™) by PCR amplification using primers that introduce an NdeI site and a start codon at the 5′-end and a BamHI site and a stop codon at the 3′-end. Resistance mutations in CA were identified by passage of the HIV-1 virus in the presence of compounds of the invention, namely V27A/I, K30R, S33G, V36T, T58I, G61E, G208A/R, E213G, K30R/T58I, K30R/G208R, V36T/G208R, S33G/T58I, S33G/G208R and T58I/G208R, all numbered with reference to SEQ ID NO: 2,. These resistance mutations may be introduced in the expression vector using the QuikChange® II Site-Directed Mutagenesis Kit (Stratagene) according to the manufacturer's instructions. SEQ ID NOS: 2 is expressed in the BL21(DE3) E. coli cells (Novagen™). Briefly, LB media is inoculated with overnight pre-cultures and grown at 37° C. until mid log-phase (Abs600 ˜0.6), protein expression is induced by addition of 0.5-1 mM isopropyl-β,D-thiogalactopyranoside (IPTG) and carried out for 4 to 6 hours at 30° C. Cells are harvested by centrifugation and pellets are stored at −80° C. until purification.
(§2) Purification of CA-NC (SEQ ID NO: 2) is as follows: 5 to 10 g of cell paste are lysed by sonication in 40 ml of Buffer A [20 mM Tris pH 7.5; 1 μM ZnCl2; 10 mM β-mercaptoethanol] supplemented with 0.5M NaCl and Complete EDTA-free® protease inhibitors tablets (Roche). Nucleic acids and cell debris are removed by adding 0.11 volumes of 0.2 M ammonium sulfate and an equivalent volume of 10% poly-(ethyleneimine) pH 8.0, stirring the sample for 20 minutes at 4° C., followed by centrifugation at 30 000×g for 20 minutes. SEQ ID NO: 2 is recovered from the supernatant by adding 0.35 volumes of saturated ammonium sulfate solution followed by centrifugation at 10 000×g for 15 minutes. The pellet is dissolved in 10 ml of Buffer A+0.1 M NaCl and dialyzed overnight in the same buffer but at 0.05 M NaCl (Dialysis Buffer). The sample is then cleared by centrifugation and passed on a 1-ml HiTrapTMSP HP column (GE Healthcare) pre-equilibrated with Dialysis Buffer. SEQ ID NO: 2 is eluted with Buffer A+0.5 M NaCl, fractions containing the protein are pooled; concentration determination is done by Abs280 using the calculated molar extinction coefficient (E=40220 M-1 cm-1).
Reacti-Bind Neutravidin Coated black 384-well plates (Pierce Cat#15402) are washed with 80 μl/well of Buffer A (50 mM Tris pH 8.0; 350 mM NaCl; 10 μM ZnSO4; 0.0025% CHAPS (w/v); 50 μg/ml bovine serum albumin (BSA); 1 mM DTT). Immobilization of a 5′-end biotin labeled (TG)25 oligonucleotide (Integrated DNA Technology Inc.) is carried out by adding 50 μl/well of a 25 nM solution of oligonucleotide in Buffer A+5 mg/ml of BSA (Sigma™) and incubating overnight. Unbound material is removed by two 80 μl/well washes with Buffer A. Assembly reactions are performed in 60 μl/well reactions comprising test compound, 100 nM of 5′-end fluorescein labeled (TG)25 oligonucleotide (Integrated DNA Technology Inc.) and 2 μM of CA-NC protein (SEQ ID NO: 2), using Buffer A+1% DMSO. Assembly reactions are incubated for 2 hours at room temperature and non-immobilized material is removed by two successive 80 μl/well washes with Buffer A. Finally, 80 μl/well of Buffer A+0.1% sodium dodecyl sulfate (SDS) is added and incubated for 15 minutes prior to quantification of captured fluorescence on a Victor2 plate reader (PerkinElmer Life Sciences) equipped with fluorescein excitation and emission filters using the standard manufacturer's settings for fluorescein fluorescence. The amount of captured fluorescence is considered to be proportional to the level of assembly. The IC50 values for each compound are generated by fitting inhibition curves from ten-point dilution series to the following equation: […]

[2] = tested on: HIV-1 replication in C8166 LTRluc cells; test: C8166 HIV-1 luciferase assay; type: cell-based; conditions: Human immunodeficiency virus 1, 72 h, inhibition of HIV-1 replication, moi 0.005, 3 days
Experimental: The assay used to measure inhibition of HIV replication is as described in WO 2004/050643, pages 73-75, herein incorporated by reference, with the following modifications:
Serial dilutions of HIV-1 inhibitors are prepared in complete media from DMSO stock solutions. Eleven serial dilutions of desired concentration are prepared in a 1 mL deep well titer plate (96 wells). The 12th well contains complete media with no inhibitor and serves as the positive control. All samples contain the same concentration of DMSO 0.1% DMSO). Inhibitor is added, to triplicate wells, of a 96 well tissue culture treated clear view black microtiter plate (Corning Costar catalogue #3904). The total volume per well is 200 μL of media containing the cells and inhibitor. The last row is reserved for uninfected C8166 LTRluc cells to serve as the background blank control and the first row is media alone.
Count C8166 LTRluc cells and place in a minimal volume of complete RPMI 1640 in a tissue culture flask (ex. 30×10^6 cells in 10 mL media/25 cm^2 flask). Infect cells with HIV-1 at a moi of 0.005. Incubate cells for 1.5 hours at 37° C. on a rotating rack in a 5% CO2 incubator. Resuspend cells in complete RPMI to give a final concentration of 25,000-cells/well. Add cells to wells of 96 well microtiter plate containing inhibitors. Add 25,000 uninfected C8166—LTRluc cells/well in 200 μL complete RPMI to last row for background control. Incubate cells at 37° C. in 5% CO2 incubator for 3 days.

[3] = molecular target: T2, assembled HIV-1 capsid complexes (CA-NC protein, SEQ ID NO: 2) (Human immunodeficiency virus type 1 group M subtype B, UniProt P12493, G226D); test: Capsid disassembly assay (CDA); type: biochemical; conditions: concentration for 50% disassembly of assembled complexes; 2 hours at room temperature; read-out: IC50 (μM) CDA
T2 construct: HIV-1NL4-3 CA-NC, Gag residues 133-432; initiator Met (start codon introduced by PCR primer) (N); made in house; host or cells: E. coli BL21(DE3), pET-11a
Excerpt: The GAG polyprotein is the major structural protein required for HIV viral particle assembly. During the maturation process, Gag is cleaved by the viral protease and releases its four major proteins, matrix (MA), capsid (CA), nucleocapside (NC) and p6, as well as two spacer peptides termed SP1 and SP2. This triggers profound morphological changes to the viral particle as CA will reassemble to form the viral core, a structure that is essential for viral infectivity.
as §1, §2
Reacti-Bind Neutravidin Coated black 384-well plates (Pierce Cat#15402) are washed with 80 μl/well of Buffer A (50 mM Tris pH 8.0; 350 mM NaCl; 10 μM ZnSO4; 0.0025% CHAPS (w/v); 50 μg/ml BSA; 1 mM DTT). Immobilization of a 5′-end biotin labeled (TG)25 oligonucleotide (Integrated DNA Technology Inc.) is carried out by adding 50 μl/well of a 25 nM solution of oligonucleotide in Buffer A+5 mg/ml BSA and incubating overnight. Unbound material is removed by two 80 μl/well washes with Buffer A. Assembly reactions are performed in 60 μl/well reactions comprising 100 nM of 5′-end fluorescein labeled (TG)25 oligonucleotide (Integrated DNA Technology Inc.) and 2 μM of CA-NC protein (SEQ ID NO: 2), using Buffer A. Assembly reactions are incubated for 2 hours at room temperature and non-immobilized material is removed by washing 80 μl/well with Buffer A. Test compounds, serially diluted in Buffer A+0.125% dimethyl sulfoxide (DMSO), are added to the wells (60 μl/well) and incubated at room temperature for 2 hours. […]

CCN1C(=O)N(c2ccc(O)c(-c3cccnc3)c2)C(=O)N(c2ccccc2)c2cc(C(F)(F)F)ccc21 [Compound 3014]
IC50 [1]: 0.31 µM
EC50 [2]: 200 nM
IC50 [3]: 0.14 µM
